Reference: patent publication US12227495B2, “Herbicidal compounds” (SYNGENTA CROP PROTECTION AG, priority 2018, dated 2025)

Key:
Assay type in all cases: in vivo
Setaria faberi (SETFA) [1] = assay: Pre-emergence herbicide test, glasshouse, percentage damage; settings: rate 1000 g/ha, evaluated after 13 days
How it was run: (§1)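 Pot-grown plants were sprayed at 500 g/ha unless otherwise stated, in acetone/water (50:50) with 0.5% Tween 20. Pre-emergence spraying was 1 day after sowing and post-emergence after 8 days, in a glasshouse at 24/16° C, 14 h light, 65% humidity. Percentage damage was scored 13 days later on a 1–5 scale (5=81-100%).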

Solanum nigrum (SOLNI) [2] = assay: as above; settings: rate 1000 g/ha, evaluated after 13 days
How it was run: as §1

[3] = system: Ipomoea hederacea (IPOHE); assay: as above; settings: rate 1000 g/ha, evaluated after 13 days
How it was run: as §1

[4] = system: Amaranthus retoflexus (AMARE); assay: as above; settings: rate 1000 g/ha, evaluated after 13 days
How it was run: as §1

Lolium perenne (LOLPE) [5] = assay: as above; settings: rate 1000 g/ha, evaluated after 13 days
How it was run: as §1

[6] = system: Echinochloa crus-galli (ECHCG); assay: as above; settings: rate 1000 g/ha, evaluated after 13 days
How it was run: as §1

Setaria faberi (SETFA) [7] = assay: Post-emergence herbicide test, glasshouse, percentage damage; settings: 1000 g/ha, evaluated after 13 days
How it was run: as §1

Solanum nigrum (SOLNI) [8] = assay: as above; settings: 1000 g/ha, evaluated after 13 days
How it was run: as §1

[9] = system: Ipomoea hederacea (IPOHE); assay: as above; settings: 1000 g/ha, evaluated after 13 days
How it was run: as §1

[10] = system: Amaranthus retoflexus (AMARE); assay: as above; settings: 1000 g/ha, evaluated after 13 days
How it was run: as §1

Lolium perenne (LOLPE) [11] = assay: as above; settings: 1000 g/ha, evaluated after 13 days
How it was run: as §1

[12] = system: Echinochloa crus-galli (ECHCG); assay: as above; settings: 1000 g/ha, evaluated after 13 days
How it was run: as §1

Row | Structure (SMILES) | Pre-emergence Test SETFA percentage damage (five point scale) (Setaria faberi (SETFA) [1]) | Pre-emergence Test SOLNI percentage damage (five point scale) (Solanum nigrum (SOLNI) [2]) | Pre-emergence Test IPOHE percentage damage (five point scale) [3] | Pre-emergence Test AMARE percentage damage (five point scale) [4] | Pre-emergence Test LOLPE percentage damage (five point scale) (Lolium perenne (LOLPE) [5]) | Pre-emergence Test ECHCG percentage damage (five point scale) [6] | percentage damage caused to the plant, SETFA (Setaria faberi (SETFA) [7]) | percentage damage caused to the plant, SOLNI (Solanum nigrum (SOLNI) [8]) | percentage damage caused to the plant, IPOHE [9] | percentage damage caused to the plant, AMARE [10] | percentage damage caused to the plant, LOLPE (Lolium perenne (LOLPE) [11]) | percentage damage caused to the plant, ECHCG [12]
1 | O=[N+]([O-])c1ccc(Oc2cccc(Cl)c2-c2cc(C(F)F)no2)nc1 [Compound A108] | 5 (5=81-100%) | 4 (4=61-80%) | 1 (1=0-20%) | 4 (4=61-80%) | 5 (5=81-100%) | 5 (5=81-100%) | 4 (4=61-80%) | 4 (4=61-80%) | 3 (3=41-60%) | 5 (5=81-100%) | 4 (4=61-80%) | 4 (4=61-80%)
2 | FC(F)c1cc(-c2c(Cl)cccc2Oc2ncc(Cl)cc2Cl)on1 [Compound A109] | 4 (4=61-80%) | 3 (3=41-60%) | 1 (1=0-20%) | 4 (4=61-80%) | 2 (2=21-40%) | 2 (2=21-40%) | 5 (5=81-100%) | 5 (5=81-100%) | 4 (4=61-80%) | 5 (5=81-100%) | 3 (3=41-60%) | 4 (4=61-80%)
3 | FC(F)c1cc(-c2c(Cl)cccc2Oc2ccc(C(F)(F)F)cn2)on1 [Compound A110] | 5 (5=81-100%) | 4 (4=61-80%) | 4 (4=61-80%) | 5 (5=81-100%) | 4 (4=61-80%) | 4 (4=61-80%) | 5 (5=81-100%) | 5 (5=81-100%) | 4 (4=61-80%) | 5 (5=81-100%) | 4 (4=61-80%) | 4 (4=61-80%)
4 | Fc1cccc(Oc2cccc(Cl)c2-c2cc(C(F)F)no2)n1 [Compound A111] | 5 (5=81-100%) | 4 (4=61-80%) | 1 (1=0-20%) | 5 (5=81-100%) | 4 (4=61-80%) | 5 (5=81-100%) | 5 (5=81-100%) | 5 (5=81-100%) | 4 (4=61-80%) | 5 (5=81-100%) | 4 (4=61-80%) | 4 (4=61-80%)
5 | FC(F)c1cc(-c2c(Cl)cccc2Oc2cc(C(F)(F)F)ccn2)on1 [Compound A112] | 5 (5=81-100%) | 2 (2=21-40%) | 1 (1=0-20%) | 5 (5=81-100%) | 3 (3=41-60%) | 4 (4=61-80%) | 4 (4=61-80%) | 4 (4=61-80%) | 3 (3=41-60%) | 4 (4=61-80%) | 3 (3=41-60%) | 3 (3=41-60%)
6 | FC(F)c1cc(-c2c(Cl)cccc2Oc2ccc(Cl)cn2)on1 [Compound A113] | 5 (5=81-100%) | 4 (4=61-80%) | 4 (4=61-80%) | 5 (5=81-100%) | 5 (5=81-100%) | 5 (5=81-100%) | 5 (5=81-100%) | 4 (4=61-80%) | 5 (5=81-100%) | 5 (5=81-100%) | 5 (5=81-100%) | 4 (4=61-80%)
7 | Fc1cnc(Oc2cccc(Cl)c2-c2cc(C(F)F)no2)c(F)c1 [Compound A114] | 5 (5=81-100%) | 4 (4=61-80%) | 5 (5=81-100%) | 5 (5=81-100%) | 5 (5=81-100%) | 5 (5=81-100%) | 5 (5=81-100%) | 5 (5=81-100%) | 5 (5=81-100%) | 5 (5=81-100%) | 4 (4=61-80%) | 4 (4=61-80%)
8 | N#Cc1ccc(Oc2cccc(Cl)c2-c2cc(C(F)F)no2)nc1 [Compound A115] | 5 (5=81-100%) | 4 (4=61-80%) | 5 (5=81-100%) | 5 (5=81-100%) | 5 (5=81-100%) | 5 (5=81-100%) | 5 (5=81-100%) | 5 (5=81-100%) | 5 (5=81-100%) | 5 (5=81-100%) | 4 (4=61-80%) | 4 (4=61-80%)
9 | Fc1cc(Br)cnc1Oc1cccc(Cl)c1-c1cc(C(F)F)no1 [Compound A116] | 5 (5=81-100%) | 4 (4=61-80%) | 4 (4=61-80%) | 5 (5=81-100%) | 5 (5=81-100%) | 5 (5=81-100%) | 5 (5=81-100%) | 5 (5=81-100%) | 5 (5=81-100%) | 5 (5=81-100%) | 5 (5=81-100%) | 4 (4=61-80%)
10 | Fc1cc(C(F)(F)F)cnc1Oc1cccc(Cl)c1-c1cc(C(F)F)no1 [Compound A117] | 5 (5=81-100%) | 2 (2=21-40%) | 5 (5=81-100%) | 5 (5=81-100%) | 4 (4=61-80%) | 4 (4=61-80%) | 4 (4=61-80%) | 4 (4=61-80%) | 5 (5=81-100%) | 5 (5=81-100%) | 4 (4=61-80%) | 4 (4=61-80%)
11 | N#Cc1cc(C(F)(F)F)cnc1Oc1cccc(Cl)c1-c1cc(C(F)F)no1 [Compound A118] | 5 (5=81-100%) | 4 (4=61-80%) | 4 (4=61-80%) | 5 (5=81-100%) | 5 (5=81-100%) | 5 (5=81-100%) | 5 (5=81-100%) | 5 (5=81-100%) | 5 (5=81-100%) | 5 (5=81-100%) | 5 (5=81-100%) | 5 (5=81-100%)
12 | FC(F)c1cc(-c2c(Cl)cccc2Oc2ccc(Br)cn2)on1 [Compound A119] | 5 (5=81-100%) | 4 (4=61-80%) | 4 (4=61-80%) | 5 (5=81-100%) | 5 (5=81-100%) | 5 (5=81-100%) | 5 (5=81-100%) | 5 (5=81-100%) | 5 (5=81-100%) | 5 (5=81-100%) | 5 (5=81-100%) | 4 (4=61-80%)
